Consider two molecules from patent US7501529B2, “7-Ethynyl-2,4,9-trithiaadamantane and related methods” (The University of Akron, priority 2003, dated 2009).

For series [1] the following is noted: comparison value, source not stated; cited from earlier work.
A short description of series [2]: Solubility in water / D2O, observed during 1H NMR experiments. It is filed as physicochemical. From the text: The formation of inclusion complex between 7-hydroxycarbonyl-2,4,9-trithiaadamantane and β-cyclodextrin was evident in the 1H NMR experiments. […] Thus, a 1:1 mixture of 7-hydroxycarbonyl-2,4,9-trithiaadamantane and β-cyclodextrin (3.5×10^−3 M) formed a clear solution in D2O in an NMR sampling tube. At the low concentration limit, this change in the solubility of 7-hydroxycarbonyl-2,4,9-trithiaadamantane in water is attributed to the molecular interactions between water insoluble 7-hydroxycarbonyl-2,4,9-trithiaadamantane and water soluble β-cyclodextrin. […] Similar phenomena in cyclodextrin inclusion complexes have been observed previously. Without being bound by theory, these spectral changes were attributed at least in part to the dynamic exchanges between uncomplexed species and the intimately included 7-hydroxycarbonyl-2,4,9-trithiaadamantane in β-cyclodextrin in aqueous solutions. […] The simultaneous observation of changes in the chemical shift of the β-cyclodextrin at H-3 and H-5 also indicated the binding interaction was dominated by the inclusion of the 7-hydroxycarbonyl-2,4,9-trithiaadamantane guest inside the host β-cyclodextrin cavity.

A short description of series [3]: 1H NMR titration, stability constant of the inclusion complex (Benesi-Hildebrand). Format: physicochemical. As for the experimental part: The equilibrium constant of the formation of the inclusion complex provides a relative measurement of the thermodynamic driving force for the guest and host binding. NMR Titration was performed by measuring chemical shift changes as a function of the relative concentrations of the host and guest. The changes of the chemical shifts were measured for the H-3 and H-5 peaks of the host and Ha and Hb of the guest in the following scheme, which represents the inclusion complex formation of 7-hydroxycarbonyl-2,4,9-trithiaadamantane with β-cyclodextrin:
The data in Table 1 were also used to calculate the stability constant of the 7-hydroxycarbonyl-2,4,9-trithiaadamantane/β-cyclodextrin inclusion complex by applying the Benesi-Hildebrand equation having the formula: 1/Δδi=(1/KΔδc)(1/Hi)+1/Δδc where the Δδi represents the observed chemical shift difference between the free guest and complexed guest, Hi represents the total host concentration, and Δδc represents the guest chemical shift difference between a completely complexed state and completely free state. In order to use Benesi-Hildebrand equation, the host molecule must be present in excess. The stability constant was determined from simultaneous fits of three chemical shift data sets. The stability constant of 7-hydroxycarbonyl-2,4,9-trithiaadamantane/β-cyclodextrin in water was thus measured to be 1550 M^−1 (logK=3.19). […]

For the molecule `O=C(O)C12CC3CC(CC(C3)C1)C2` [1-adamantane carboxylic acid], in series [1], the “stability constant K of the β-cyclodextrin inclusion complex (comparison)” value is 188 M⁻¹.
In the case of `O=C(O)C12CC3SC(C1)SC(C2)S3` [7-hydroxycarbonyl-2,4,9-trithiaadamantane], in series [2] (water, without β-cyclodextrin), the solubility in water entry is “dissolves only slightly”. Moreover, the “change of solubility in water with β-cyclodextrin present” value in series [2] (β-cyclodextrin present, 1:1 mixture (3.5×10^−3 M) formed a clear solution in D2O) is “increased visibly”. The “association (stability) constant of the inclusion complex with β-cyclodextrin” value in series [3] (1:1 complex, in water (D2O), room temperature, 1H NMR titration) turned out to be 1550 M⁻¹. In addition, the “logK of the stability constant of the β-cyclodextrin inclusion complex” value in series [3] (in water) stood at 3.19.
